Consider one sequence from article PMC11079029, “Intramolecular autoinhibition regulates the selectivity of PRPF40A tandem WW domains for proline-rich motifs” (Nature Communications, 2024).

Experiment [1] has as its target T1, PRPF40A WW12 (tandem WW domains, residues 141–236) (Homo sapiens, UniProt O75400).
T1 construct: WW12 141–236, WW12long 141–248, and N-ext-WW12 56–236; 6xHis-TEV site (N, cleaved yes); made in house; host or cells: Escherichia coli BL21(DE3)
Briefly: ITC of PRPF40A WW12 with GB1-tagged proline-rich peptides and constructs. The experiment is classed as binding. An excerpt:
(§1) PRPF40A isoform 1 sequences (N-ter 1–310, WW12short 141–223, WW12 141–236, WW12long 141–248, and N-ext-WW12 56–236) were amplified from a purchased DNA fragment (IDT) and cloned using NcoI and KpnI restriction sites into a pETM11 vector encoding 6xHis and TEV cleavage site as a N-terminal tag. SF1 (Pro A 410–468, Pro B 468–539, Pro C 539–594, Pro D 594–639, Pro BC 468–594, Pro CD 539–639, Pro BCD 468–639 and Pro ABCD 410–639) and SF3A1 (Middle Pro 364–413 and C-ter Pro 552–683) constructs were prepared in a similar manner using a pET24 vector with a 6xHis, GB1 and TEV cleavage site as N-terminal fusion cassette. 16-mer SF1 constructs (Table 1) and polyproline peptides (P6, P8, P10, P13, P16, P19, P22, P25, and P29) were cloned in the same pET24 vector with GB1 tag by direct ligation of purchased oligonucleotides (Eurofins). All peptide sequences contained N and C-terminal common residues to avoid boundary effects on binding: TEVsite-GAMSGS-peptide-SGSN. Mutants of PRPF40A WW12 and N-ext-WW12 constructs were prepared by site-directed mutagenesis. The truncated version of PRPF40A WW12 (141-217) was a gift from Dr. María Macías (IRB, Spain). All used oligonucleotides were purchased from Eurofins Genomics and are shown in Supplementary Table 6.
(§2) Resuspended cell pellets in 20 mM Tris pH 8.0, 500 mM NaCl, 10 mM imidazole, 0.5 mM TCEP, and protease inhibitors mix (SERVA) were lysed by cell disruption in a French press. Clear lysates, after centrifugation (at 18,000 g) and filtering, were loaded into Ni-NTA resin. The resin was then washed with 20 mM imidazole containing buffer, and the desired protein was eluted with 500 mM imidazole. PRPF40A constructs were then subjected to TEV protease treatment (homemade at a final concentration of ≈50 μg/ml), dialyzed overnight at 4 °C against an imidazole-free buffer, and then loaded again to Ni-NTA resin; desired digested proteins were obtained in the flow-through and wash fractions while uncleaved protein, TEV protease, and impurities remained bound to the resin. Cleaved PRPF40A proteins and GB1-tagged SF1, SF3A1, and polyproline constructs were further purified by size-exclusion chromatography on a HiLoad 16/60 Superdex 75 column (GE Healthcare) equilibrated with 20 mM sodium phosphate, pH 6.5, 100 mM NaCl and 1 mM DTT buffer. For the purification of PRPF40A WW12 in complex with SF1 peptide, cell pellets of recombinant expression for both proteins were mixed and processed together following the Ni-NTA—TEV digestion—reverse Ni-NTA—SEC-75 protocol; where the complex remained bound in a 1:1 stoichiometry throughout the whole purification (corroborated by NMR). Molecular weight of each sample was confirmed by mass spectrometry, purity was checked by PAGE-SDS, and protein concentrations were determined from the aromatic contribution to the UV absorbance spectra at 280 nm.
(§3) Experiments were conducted on a MicroCAl PEAQ-ITC (Malvern Instruments, UK) at 25 °C in 20 mM sodium phosphate pH 6.5 and 100 mM NaCl. PRPF40A was titrated into N-terminal GB1 tagged SF1 or polyproline constructs and vice versa with similar results. Protein concentrations in the cell were around 20–40 μM, while in the syringe ranged between 200 and 500 μM. Experiments were performed at least in duplicate with injections of 1.5 μL (0.4 μL for first point) separated by 150 s delays to recover thermal power baseline and continuous stirring in the cell (750 rpm) for correct mixing. The reference cell was filled with water in all experiments. Data were processed by removing the blank experiment (using digested GB1 fusion protein) and adjusted to one-site binding model with Malvern PEAQ-ITC Analysis software (Malvern Instruments, UK).

In experiment [2] the target is T2, PRPF40A N-ext-WW12 (residues 56–236) (Homo sapiens, UniProt O75400).
T2 construct: WW12long 141–248, and N-ext-WW12 56–236; 6xHis-TEV site (N, cleaved yes); made in house; host or cells: Escherichia coli BL21(DE3)
T2 sequence (O75400 56-236): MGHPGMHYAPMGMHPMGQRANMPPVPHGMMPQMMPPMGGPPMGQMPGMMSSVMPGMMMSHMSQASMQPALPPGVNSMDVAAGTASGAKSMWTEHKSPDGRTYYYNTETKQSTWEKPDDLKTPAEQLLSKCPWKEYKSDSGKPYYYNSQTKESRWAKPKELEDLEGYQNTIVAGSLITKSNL
Put plainly: ITC of N-terminally extended WW12 with SF1 peptides. The experiment is classed as binding. The settings on record: for Kd: ITC.
Text: as §1, §2, §3

For the next experiment, the system named is PRPF40A WW12. Briefly: NMR titration (1H-15N HSQC, chemical shift perturbation) of WW12 with polyproline or SF1 peptides. The experiment is classed as binding, human. Conditions: 15N-labelled WW12 around 100 μM, unlabelled GB1-tagged peptide, 25 °C. The protocol:
NMR samples were prepared at concentrations ranging 100–1000 μM in buffer containing 20 mM sodium phosphate pH 6.5, 100 mM NaCl, 1 mM DTT, and 10% or 100% D2O, and measured at 25 °C (except stated otherwise) in 900-, 800-, 600- and 500-MHz Bruker Avance III NMR spectrometers equipped with cryogenic triple resonance gradient probes. Topspin 4.1.0 (Bruker) software was used for NMR data acquisition. Spectra were processed with NMRpipe 8.9[76] and analyzed using ccpnNMR Analysis 2.5 software.
^15N-labeled PRPF40A proteins (WW1, WW2, WW12, and N-extWW12) at around 100 μM concentration were titrated with increasing concentration ratios of polyproline or SF1 peptides (GB1 tagged) until reaching saturation, when possible; ^1H-^15N HSQC experiments and in some cases ^1H-^13C HSQC experiments (using double-labeled PRPF40A proteins) were acquired at each titration point. The chemical shift perturbation (CSP) was weighted using the Eqs. (1) and (2)[89].1 CSP(HN)=0.5⋅ΔδH2+0.14⋅ΔδN2 2 CSP(HC)=0.5⋅ΔδH2+0.3⋅ΔδC2

Read-outs that look alike come from different tables or passages of the source. Bounds are passed on as bounds.

On to PPLPPGAPPPPPPPPP [SF1WWbs], for which the “N (sites)” value amounted to 1.00 ± 0.03 sites in experiment [1] (ITC as E1, peptide in the cell, WW tandem in the syringe, N >1 = more than one WW tandem per peptide) and 0.88 ± 0.03 sites in experiment [2] (ITC as E7). For the same sequence, the “DH” value in experiment [1] (ITC binding enthalpy, as E1) was -81.8 ± 1.7 kJ/mol; in experiment [2] (ITC binding enthalpy, as E7) it was -66.1 ± 3.7 kJ/mol. The “Kd (µM)” value in experiment [1] (ITC, 25 °C, 20 mM sodium phosphate pH 6.5, 100 mM NaCl, GB1-tagged polyproline or SF1 16-mer peptide in the cell, WW tandem in the syringe, one-site model, apparent Kd, average of at least duplicates) is given as “low micromolar range”. For the same sequence, the equilibrium dissociation constant (Kd) in experiment [1] (ITC, SF1 peptides, individual value 1 (replicate 1), read-out: Kd Values with WW12, individual value) was found to be 1290 nM; in experiment [1] (ITC, SF1 peptides, individual value 2 (replicate 2), read-out: Kd Values with WW12, individual value) it was 1240 nM; in experiment [1] (ITC, SF1 peptides, individual value 3 (replicate 3), read-out: Kd Values with WW12, individual value), 1620 nM; in experiment [1] (ITC, SF1 peptides, individual value 5 (replicate 5), read-out: Kd Values with WW12, individual value), 1290 nM; in experiment [1] (ITC, mean over the peptides of the classification group, read-out: Kd Values with WW12, averaged group), 1400 nM; in experiment [2] (25 °C, 20 mM sodium phosphate pH 6.5, 100 mM NaCl, GB1-tagged SF1 16-mer, N-terminally extended WW12, at least duplicates, listed as 575 PPLPPGAPPPPPPPPP 590, read-out: Kd), 8.71 ± 0.88 µM. Moreover, the Kd in experiment [2] (25 °C, 20 mM sodium phosphate pH 6.5, 100 mM NaCl, GB1-tagged SF1 16-mer, N-terminally extended WW12, at least duplicates, read-out: Kd) is less than 10 µM; in experiment [2] (SF1 peptides, individual value 1 (replicate 1), read-out: Kd Values with Nter Ext WW12, individual value), 9.19 µM; in experiment [2] (SF1 peptides, individual value 2 (replicate 2), read-out: Kd Values with Nter Ext WW12, individual value) it was 8.22 µM. Besides, the “binding by NMR titration, exchange regime” value in the experiment on PRPF40A WW12 is on record as “slow exchange regime”.
